Data on two substances can be found in patent publication US6399745B1, “Use of leptin antagonists for treating insulin resistance in type II diabetes” (Aventis Pharma Deutschland GmbH, priority 1996, dated 2002).

The subject of test [1] is C2C12 mouse myotubes. The note with it: cited from earlier work.
For test [2], the system named is isolated rat adipocytes. Kind of test: Insulin stimulation of glycogenesis in isolated rat adipocytes under leptin. It counts as cell-based. Conditions: basal values unaffected.
The subject of test [3] is isolated rat adipocytes. Put plainly: Antagonism of fragment 116-167 to the leptin effect: insulin-stimulated glucose transport. It is filed as cell-based. On the procedure:
Adipocytes were prepared from the epididymal fat tissue of male Wistar rats (140-160 g, Hoechst AG breeding station, Kastengrund) by means of digesting with collagenase (Rodbell, 1964, J. Biol. Chem. 239, 375-380), washed twice with KRH (25 mM Hepes free acid, 25 mM Hepes sodium salt, 80 mM NaCl, 1 mM MgSO4, 2 mM CaCl2, 6 mM KCl, 1 mM sodium pyruvate, 0.5% BSA) and once with DMEM (Dulbecco's minimal essential medium), supplemented with 5.5 mM glucose, 20 mM Hepes (pH 7.4), 2% fetal calf serum, 1% BSA, 50 U of penicillin/ml, […], by means of flotation (800×g, 1 min, in small plastic tubes), and finally diluted to a volume of 20 ml of DMEM/g wet weight of the fat tissue (cell titer: approximately 2.5×10^5 cells/ml). […]
Glucose transport was measured as the specific uptake of the non-metabolizable glucose analog 2-deoxyglucose (Muller and Wied, 1993, Diabetes 42, 1852-1867). […] After 10 ml of scintillation fluid (water-based) had been added, the radioactivity associated with the cells was measured. […]
Isolated rat adipocytes were incubated for 17.5 h in primary culture in the presence or absence of leptin (10 nM) and increasing concentrations of leptin fragment 116-167. […] The stimulation factor for insulin was calculated as the ratio between the insulin-stimulated activity and the basal activity. […]

Test [4] has as its system isolated rat adipocytes. Put plainly: Lipogenesis (incorporation of D-glucose into toluene-extractable lipids) in isolated rat adipocytes after primary culture with leptin. It counts as cell-based. The note with it: for Lipogenesis, stimulation factor for insulin (stimulated/basal): Insulin concentration: 5 nM. How it is done:
Adipocytes were prepared from the epididymal fat tissue of male Wistar rats (140-160 g, Hoechst AG breeding station, Kastengrund) by means of digesting with collagenase (Rodbell, 1964, J. Biol. Chem. 239, 375-380), washed twice with KRH (25 mM Hepes free acid, 25 mM Hepes sodium salt, 80 mM NaCl, 1 mM MgSO4, 2 mM CaCl2, 6 mM KCl, 1 mM sodium pyruvate, 0.5% BSA) and once with DMEM (Dulbecco's minimal essential medium), supplemented with 5.5 mM glucose, 20 mM Hepes (pH 7.4), 2% fetal calf serum, 1% BSA, 50 U of penicillin/ml, […], by means of flotation (800×g, 1 min, in small plastic tubes), and finally diluted to a volume of 20 ml of DMEM/g wet weight of the fat tissue (cell titer: approximately 2.5×10^5 cells/ml). The adipocytes were incubated, at 37° C. for 15-18 h under an atmosphere of 5% CO2 and with gentle shaking, in supplemented (see above) DMEM in the presence of 100 nM phenylisopropyladenosine (4 ml of DMEM to 1 ml of cells, cell titer approximately 5×10^4 cell/ml, in 50 ml sterile polypropylene: tubes) and in the presence or absence of leptin. The adipocytes were subsequently washed three times with cold KRH and adjusted to a cell titer of approximately 3×10^5 cells/ml by adding 0.7 ml of glucose-free KRH to the cell layer which remained after the complete removal of the last washing solution. In order to determine the capacity of the adipocytes to be stimulated by insulin, and their sensitivity to insulin, following the primary culture, the washed adipocytes were incubated at 37° C. for 20 min in the absence or presence of human insulin (0.02-50 nM final concentration), and glucose transport or lipogenesis was then measured. Lipogenesis was measured as the incorporation of D-glucose into toluene-extractable lipids (Moody et al., 1974, Horm. Metab. Res. 6, 12-16). 200 μl of the adipocyte suspension in KRH were incubated in scintillation vials, at 37° C. for 20 min, in 680 μl of KRH which was supplemented with 3.5 mM glucose and 20 μl of insulin solution. Lipogenesis was started by adding 100 μl of D-[3-^3H]glucose (25 μCi/ml KRH). After incubating at 37° C., and gently shaking under an atmosphere of 5% CO2, for 90 min, 10 ml of scintillation fluid (toluene-based) were added and the radioactivity in the toluene phase was determined after shaking vigorously and subsequent phase separation (at least 4 h of incubation). The radioactivity of the lipids in the toluene phase was corrected for the radioactivity of an incubation mixture which contained the same quantity of [^3H]glucose but no cells. Isolated rat adipocytes were incubated for 15 h in primary culture in the presence or absence of increasing concentrations of leptin. The cells were then washed and tested for glucose transport and lipogenesis in the basal and insulin (10 nM)-stimulated states. The stimulation factor for insulin was calculated as the ratio between insulin-stimulated and basal activities. Each value represents the mean from two independent adipocyte cultures with activity being determined two or three times in each case.

The subject of test [5] is ob/ob mice. The note with it: injection; cited from earlier work.

For the substance Leptin, the glucose transport entry in test [1] is given as “stimulated”. Also, the glycogen synthesis entry in test [1] is listed as “stimulated”. Moreover, in test [2], the “insulin sensitivity of stimulation of glycogenesis” value was “drastically reduced”. In addition, the “Glucose Transport, stimulation factor for insulin (stimulated/basal)” value in test [3] (Leptin: 10 nM 17.5 h, no fragment, Insulin: 5 nM) is listed as 3.55. In addition, the “Lipogenesis, stimulation factor for insulin (stimulated/basal)” value in test [4] (leptin 0.3 nM 15 h) is given as 3.9; in test [4] (leptin 1 nM 15 h), 3.2; in test [4] (leptin 3 nM 15 h), 2.15; in test [4] (leptin 10 nM 15 h) it was 1.5; in test [4] (leptin 30 nM 15 h), 1.15; in test [4] (leptin 100 nM 15 h), 1.05. In addition, the “insulin sensitivity of stimulation of lipogenesis” value in test [4] (leptin, basal values unaffected) is on record as “drastically reduced”. For the same substance, in test [5], the nutrient intake result is “reduction in nutrient intake”. The weight entry in test [5] is recorded as “decrease in weight”.

As to “Insulin: human insulin used to stimulate adipocytes [reference compound]”, the “Glucose Transport, stimulation factor for insulin (stimulated/basal)” value in test [3] (Insulin only, 5 nM (no leptin, no fragment)) amounted to 13.4. Moreover, the “Lipogenesis, stimulation factor for insulin (stimulated/basal)” value in test [4] (no leptin) was 3.9.
